Like-named read-outs stand apart in the source and are kept apart here.
Tests used:
[1] = system: licking/biting behavior after injection of 2.5% formalin in the plantar surface of the rat's paw; experiment: Formalin test (persistent pain model), licking/biting behavior, with isobolographic analysis; type: in vivo, rat (Sprague Dawley); conditions: for percentage of inhibition of phase II (% antinociception) / ED30 for the inhibition of phase II (experimental): single dose; for percentage of inhibition of phase II (% antinociception): 2.5% formalin; for Oral administration ED30: formalin test, dose producing 30% reduction of control response, mean ± SD of the estimate; for ED30 for the inhibition of phase II (experimental): oral, phase II of formalin test, unit not given
From the text: In the present invention referred to the combination paracetamol:amitriptyline, the pharmacodynamic rationality was based on the knowledge of the actions of both drugs on the nociceptive pathways considering the multiple sites and mechanisms operating on specific targets, as well as their adverse effects and pharmacokinetic variables. […] This responds to the need for the use of integral systems in which peripheral activity, spinal transmission, modulating systems and suprasegmental systems of the active global network that leads to the perception of pain can interact (Raffa, R B et al., 2010. J Pain 11: 701-709). The experiments were designed in young rats (8-10 weeks, Sprague Dawley, males, 168-240 g, CENPALAB, Havana, Cuba) and divided into several groups n=6-7 each, which received increasing doses of both drugs independent and combinations, to evaluate the effect as a percentage (%) of antinociception at single doses in the formalin test compared to the vehicle-treated group. This test is considered a standard persistent pain model for the study of animal nociception, widely used (Okuda, K. et al., 2001. Pain 92: 107-15). A biphasic nociceptive behavior has been described in this test, the first phase or nociceptive is interpreted as a consequence of the direct activation of the peripheral endings of the nociceptors by the chemical irritant. While the second, tonic or late phase is interpreted as the result of the acute inflammatory response, as well as the peripheral and central sensitization produced by the sustained activation of C fibers (Coderre, T J et al., 1990. Brain Res. 535: 155-8). This phase mimics the changes in synaptic plasticity that occur during persistent pain that could progress to chronicity, which is why it received the greatest attention in our experiments. The period between the two phases of the response is identified as a phase of latency in which the activity diminishes or practically ceases, this effect being attributed to the participation of the mechanisms of central endogenous pain modulation (Dubuisson, D. and, Dennis, S G 1977. Pain 4: 161-74; Omote, K. et al., 1998. Brain Res. 814: 194-8). The time course of the antinociceptive response to individual drugs and combinations was constructed by mapping the mean time of the licking/biting as a function of the time of each phase. These values were transformed into percentage of antinociception that express the percentage of inhibition of the behavior with respect to the control of the particular phase according to the formula: % antinociception=((x−x1)/x)*100. Where X=average time of licking/bite of the control group treated with vehicle, X1=time of licking/biting of each animal of the experimental group (for phase I licking time in 5 minutes, for phase II average of the time of 15 to 45 minutes per animal). In the case that X1 was greater than X, a value of 0 was assigned to % antinociception. A value close to 0% means that the behavior is similar to that of the control group and a value close to 100% means that there was no nocidefensive behavior (Argelles, C. F. et al., 2002. Anesthesiology 96: 921-5). The antihyperalgesic effect of amitriptyline has been recognized in neural damage conditions. […] One of the proposals to explain these discrepancies has been the ability of amitriptyline to increase serotonergic signaling, which has multiple subtypes of receptors, some low and others with high affinity, with heterogeneous and even opposite actions distributed at different levels of the nociceptive pathways. […] However, 5-HT2A and 5-HT3, 5-HT4 and 5-HT7 localized pre-synaptically facilitate it. […] As a consequence, the most integrated licking/biting behavior was recorded and doses of amitriptyline (0.1, 1, 3, 10 mg/kg, p.o., AMT) were used for the dose-response curve study (FIG. 1). […]

[2] = system: mechanical allodynia in the ipsilateral hindpaw of CCI rats; experiment: Sciatic nerve chronic constriction injury (CCI) model, mechanical allodynia (von Frey filaments), with isobolographic analysis; type: in vivo, rat (Sprague Dawley); conditions: for MPE, mechanical allodynia: day 14 post-CCI; for ED50: Rattus norvegicus
From the text: (§1) The favorable results at a single dose in phase II of this algesymmetric test provide evidence that allows us to move towards a neuropathic pain model to study the possible combination at repeated doses. […] The CCI model has a high sensitivity (88%) for the prediction of efficacy in controlled clinical trials (Kontinen, V K and Meert, T F 2003. In: Dostrovsky, J O, Carr, D B, Koltzenburg, M. editors. the 10th World Congress on Pain, Seattle: IASP Press, p. 489-98). Once the model was reproduced, the threshold of removal of the injured hindpaw was measured by the stimulation with the von Frey filaments (mechanical allodynia) and by the stimulation with an electronic von Frey (mechanical hypernociception). The measurements were performed under baseline conditions and at 7 days post-CCI (hyperalgesic peak in the model), at which time the experimental groups were conformed (n=6-7 per group) to proceed with the dose-response curve study of amitriptyline. In this way, establish the ED30 or ED50 depending on the % of maximum possible effect (MPE) produced by the drug to reduce each of the sensory symptoms of neuropathic pain reproduced by the model (Jensen, T S and Baron, R. 2003. Pain 102: 1-8). Gabapentin, a common drug in its treatment, was used as a reference. CCI-vehicle group (distilled water 10 mL/kg, p.o.), amitriptyline groups (0.5, 1.5, 3, 10 mg/kg, p.o., AMT), gabapentin group (50 mg/kg, p.o., GBP); Sham CCI Group (distilled water 10 mL/kg, p.o.) The daily supply was given at repeated doses for 7 days until 14 days post-CCI, at which time another evaluation of the variables was performed. […] The experimental groups were formed for the dose-response curve study of paracetamol: CCI-vehicle group (distilled water 10 mL/kg, p.o.), Paracetamol groups (25, 50, 100, 200 mg/kg, p.o., P), Gabapentin group (50 mg/kg, p.o., GBP), CCI Sham Group (distilled water 10 mL/kg, p.o.). These doses of paracetamol have not been associated with liver or kidney damage in rats. […] To execute the dose-response curve mapping, the withdrawal thresholds after the treatments were converted into % of MPE. [Mechanical allodynia: MPE %=(post-treatment threshold−pre-treatment threshold)/(15 g-pre-treatment threshold)×100; Mechanical hypernociception: MPE % (Δ g post-treatment−Δ g pre-treatment)/50−Δ g pre-treatment)×100]. Subsequently, the same design was executed with the four doses of the combination calculated from the theoretical effective dose of each drug, this was calculated for each variable depending on the ED50 or ED30 according to the drug's capacity to obtain 50% or more of MPE that is 100% assumed as the total suppression of mechanical allodynia and mechanical hypernociception induced by CCI. […] In addition, concerning to the hypernociception intensity, the MPE values: 0.5 mg/kg=2.55%, 1.5 mg/kg=16.07% (p<0.05), 3 mg/kg=35.43% (p<0.001), 10 mg/kg=44.95% (p<0.001) vs GBP 50 mg/kg=63.47% (p<0.001), ED30=3.1032 (FIG. 8B). Amitriptyline inhibited both alterations of nociceptive processing but the potency of its effect was in the following order: mechanical allodynia>mechanical hypernociception. In neuropathic pain models there are controversies regarding the observation of the mechanical antiallodynic effect of amitriptyline. […] The result was similar in the model of spared neural injury (SNI), instead it reversed the responses to stimuli induced by chemical irritants induced by ATP and capsaicin, stimuli that are transmitted by the C fibers that express P2X and TRPV1 receptors and that are also involved in the transmission of thermal stimuli.

[3] = system: mechanical hypernociception in the ipsilateral hindpaw of CCI rats; experiment: Sciatic nerve chronic constriction injury (CCI) model, mechanical hypernociception (electronic von Frey); type: in vivo, rat (Sprague Dawley); conditions: for MPE, intensity of mechanical hypernociception: day 14 post-CCI; for ED30, mechanical hypernociception: oral repeated doses, CCI rats, unit not given
From the text: as §1

[4] = Behavioral safety pharmacological tests (rota-rod, tone, posture, righting reflex, general state); type: in vivo, rat (Sprague Dawley); conditions: repeated minor doses (0.5-10 mg/kg p.o.) in the CCI model
Method: The rotating rod or rota-rod test was executed. The apparatus consists of a bar with a diameter of 2.5 cm divided into 4 compartments. The bar rotated at a constant speed of 22 rpm and the time it took for the animals to fall from the bar was evaluated. The animals were evaluated 1 h after the supply. The cut-off time used was 60 seconds. In addition, the tone, posture, righting reflex, corneal, vital signs and general state of the animal were explored from 30 minutes to 3 hours post-administration of the drugs separately and the combination. The corneal and tympanic reflex were explored by the tip of a thin paper to stimulate the cornea or auditory canal and the rapid response of opening and closing of the eyes or the mobilization of the ears in normal animals was observed. The evaluation of the posture and the righting reflex was based on the scale of Devor and Zalkind. Scale for posture: 0=normal posture, grooming supported on its hind legs; 1=moderate atony and ataxia, supports its weight, but can not rest on its hind legs; 2=supports its weight, but ataxia is severe; 3=maintains muscle tone, but can not support its weight, only small movements of intention; 4=atony, flaccidity, totally immobilized, no efforts to mobilize.

[5] = system: CCI-induced Wallerian degeneration-related changes in rat sciatic nerve; experiment: Histopathological study of sciatic nerve sections (Wallerian degeneration) in CCI rats; conditions: GBP as positive control, 14 days post-CCI
[6] = 0.5 mg/kg p.o. daily for 7 days
[7] = 1.5 mg/kg p.o. daily for 7 days
[8] = po, CCI model, dose producing 50% reduction of control response, table values mean ± SD of the estimate, read-out: Oral administration ED50 (antiallodynic, experimental)
[9] = oral repeated doses, CCI rats, unit inferred, read-out: ED50, mechanical allodynia
[10] = 100 mg/kg p.o. daily for 7 days
[11] = 200 mg/kg p.o. daily for 7 days

## CN(C)CCC=C1c2ccccc2CCc2ccccc21 [Amitriptyline, amitriptyline]
[1]; 0.1 mg/kg p.o., phase II (15-45 min)
  percentage of inhibition of phase II (% antinociception): −11.38%
[1]; 1 mg/kg p.o., phase II
  percentage of inhibition of phase II (% antinociception): 57.35%
[1]; 3 mg/kg p.o., phase II
  percentage of inhibition of phase II (% antinociception): 55.56%
[1]; 10 mg/kg p.o., phase II
  percentage of inhibition of phase II (% antinociception): 62.24%
[1]; doses 0.1, 1, 3, 10 mg/kg p.o.
  inhibitory effect on phases of the formalin test: significant inhibitory effect was observed exclusively on phase II
[1]; doses of 20, 25, 50 and 100 mg/kg
  licking/biting response in both phases: a significant dose-dependent inhibitory response pattern was not observed
[1]
  Oral administration ED30: 0.66 ± 0.41 mg/kg
  ED30 for the inhibition of phase II (experimental): 0.6677
[2]; [6]
  MPE, mechanical allodynia: 0.96%
[2]; [7]
  MPE, mechanical allodynia: 1.31%
[2]; 3 mg/kg p.o. daily for 7 days
  MPE, mechanical allodynia: 58.75%
[2]; 10 mg/kg p.o. daily for 7 days
  MPE, mechanical allodynia: 65.97%
[2]; [8]
  ED50: 4.54 ± 2.28 mg/kg
[2]; [9]
  ED50: 4.54 mg/kg
[2]; doses of 3 and 10 mg/kg p.o., repeated 7 days (p<0.05)
  withdrawal thresholds of the damaged paw to von Frey filaments stimulation: increased the withdrawal thresholds
[3]; [6]
  MPE, intensity of mechanical hypernociception: 2.55%
[3]; [7]
  MPE, intensity of mechanical hypernociception: 16.07%
[3]; 3 mg/kg p.o. daily for 7 days
  MPE, intensity of mechanical hypernociception: 35.43%
[3]; 10 mg/kg p.o. daily for 7 days
  MPE, intensity of mechanical hypernociception: 44.95%
[3]; dose of 1.5 (p<0.01), 3 and 10 mg/kg (p<0.001) p.o., repeated 7 days
  intensity of mechanical hypernociception: significantly reduced the intensity of mechanical hypernociception
[3]
  ED30, mechanical hypernociception: 3.1032
[4]
  signs of sedation or catalepsy: no signs of sedation or catalepsy

## NCC1(CC(=O)O)CCCCC1 [GBP, gabapentin]
[2]; 50 mg/kg p.o. daily for 7 days
  MPE, mechanical allodynia: 60.66%
[3]; 50 mg/kg p.o. daily for 7 days
  MPE, intensity of mechanical hypernociception: 63.47%
[5]
  Wallerian degeneration alterations in sciatic nerve (qualitative): show a decrease in these alterations

## CC(=O)Nc1ccc(O)cc1 [Paracetamol, paracetamol]
[1]; 50 mg/kg p.o., phase II
  percentage of inhibition of phase II (% antinociception): 38.08%
[1]; 100 mg/kg p.o., phase II
  percentage of inhibition of phase II (% antinociception): 65.73%
[1]; 200 mg/kg p.o., phase II
  percentage of inhibition of phase II (% antinociception): 74.24%
[1]; 300 mg/kg p.o. (printed 'the dose higher than 300 mg/kg')
  effect on phase I of the formalin test: significantly reduced phase I
[1]; 300 mg/kg p.o., phase II
  percentage of inhibition of phase II (% antinociception): 87.78%
[1]; all doses used: 50, 100, 200, 300 mg/kg p.o.
  effect on phase II of the formalin test: significantly reduced phase II
[1]
  Oral administration ED30: 32.35 ± 7.85 mg/kg
  ED30 for the inhibition of phase II (experimental): 32.3578
[2]; 25 mg/kg p.o. daily for 7 days
  MPE, mechanical allodynia: 25.65%
[2]; 50 mg/kg p.o. daily for 7 days
  MPE, mechanical allodynia: 60.96%
[2]; [10]
  MPE, mechanical allodynia: 75.49%
[2]; [11]
  MPE, mechanical allodynia: 75.45%
[2]; [8]
  ED50: 47.5 ± 14.1 mg/kg
[2]; [9]
  ED50: 47.5 mg/kg
[2]; doses 25, 50, 100, 200 mg/kg p.o., repeated 7 days (p<0.05)
  antiallodynic effect: significant antiallodynic effect from doses of 50 mg/kg
[3]; 25 mg/kg p.o. daily for 7 days
  MPE, intensity of mechanical hypernociception: 31.79%
[3]; 50 mg/kg p.o. daily for 7 days
  MPE, intensity of mechanical hypernociception: 35.05%
[3]; [10]
  MPE, intensity of mechanical hypernociception: 42.42%
[3]; [11]
  MPE, intensity of mechanical hypernociception: 48.37%
[3]; 25, 50, 100 (p<0.01) and 200 mg/kg (p<0.001) p.o., similar to GBP
  mechanical antihypernociceptive effect: mechanical antihypernociceptive effect in a dose-dependent manner
[3]; doses of 300 mg/kg compared with 200 mg/kg
  efficacy to reduce the intensity of mechanical hypernociception, 300 mg/kg versus 200 mg/kg: less efficacy
[3]
  ED30, mechanical hypernociception: 22.5725

Source: patent publication US11590091B2, “Fixed dose composition of paracetamol: amitriptyline and method for the treatment of mixed cancer pain” (CENTRO DE INVESTIGACIÓN Y DESARROLLO DE MEDICAMENTOS CIDEM, priority 2018, dated 2023)
